From ChEMBL document CHEMBL1201862, “PubChem BioAssay data set” (2004)
One block for each compound: values may come before it. Activity calls are given as the source filed them.

How the values were obtained:
Cytochrome P450 2D6 = Cytochrome P450 2D6 (Homo sapiens, UniProt P10635);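 note: CYP2D6 member of a cytochrome P450 panel assay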
Cytochrome P450 2C19 = Cytochrome P450 2C19 (Homo sapiens, UniProt P33261); test: Cytochrome panel assay with activity outcomes. Panel member name: p450-cyp2c19 Compounds with AC50 equal or less than 10 uM are considered active; type: functional
Cytochrome P450 3A4 = Cytochrome P450 3A4 (Homo sapiens, UniProt P08684);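 note: CYP3A4 tested as one member of a cytochrome P450 panel screen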
Exodeoxyribonuclease V = target: T1, Exodeoxyribonuclease V (Escherichia coli (strain K12), UniProt P04993+P07648+P08394); test: E. coli RecBCD inhibitors, dose response, counter-screen for AddAB inhibitor project, absorbance, V66 E. coli, mutant T4 phage (AID 492957); type: functional, cell-based, Escherichia coli str. K-12 substr. MG1655
T1 sequence (P04993 whole entry): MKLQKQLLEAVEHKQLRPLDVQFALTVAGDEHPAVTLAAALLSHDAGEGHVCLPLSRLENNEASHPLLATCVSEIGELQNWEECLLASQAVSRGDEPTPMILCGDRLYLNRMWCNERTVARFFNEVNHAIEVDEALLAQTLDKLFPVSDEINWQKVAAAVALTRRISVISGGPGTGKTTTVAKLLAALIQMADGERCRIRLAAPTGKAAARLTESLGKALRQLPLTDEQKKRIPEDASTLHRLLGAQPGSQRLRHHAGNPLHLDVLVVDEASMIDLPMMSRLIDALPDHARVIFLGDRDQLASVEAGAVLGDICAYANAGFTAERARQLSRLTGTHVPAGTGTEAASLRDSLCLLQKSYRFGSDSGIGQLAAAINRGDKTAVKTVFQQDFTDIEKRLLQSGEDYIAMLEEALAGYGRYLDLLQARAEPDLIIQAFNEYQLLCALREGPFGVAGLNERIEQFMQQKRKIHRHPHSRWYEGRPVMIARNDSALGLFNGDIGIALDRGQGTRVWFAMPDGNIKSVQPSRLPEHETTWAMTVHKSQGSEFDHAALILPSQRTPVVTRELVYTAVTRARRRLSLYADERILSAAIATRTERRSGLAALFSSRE
T1 sequence (P07648 whole entry): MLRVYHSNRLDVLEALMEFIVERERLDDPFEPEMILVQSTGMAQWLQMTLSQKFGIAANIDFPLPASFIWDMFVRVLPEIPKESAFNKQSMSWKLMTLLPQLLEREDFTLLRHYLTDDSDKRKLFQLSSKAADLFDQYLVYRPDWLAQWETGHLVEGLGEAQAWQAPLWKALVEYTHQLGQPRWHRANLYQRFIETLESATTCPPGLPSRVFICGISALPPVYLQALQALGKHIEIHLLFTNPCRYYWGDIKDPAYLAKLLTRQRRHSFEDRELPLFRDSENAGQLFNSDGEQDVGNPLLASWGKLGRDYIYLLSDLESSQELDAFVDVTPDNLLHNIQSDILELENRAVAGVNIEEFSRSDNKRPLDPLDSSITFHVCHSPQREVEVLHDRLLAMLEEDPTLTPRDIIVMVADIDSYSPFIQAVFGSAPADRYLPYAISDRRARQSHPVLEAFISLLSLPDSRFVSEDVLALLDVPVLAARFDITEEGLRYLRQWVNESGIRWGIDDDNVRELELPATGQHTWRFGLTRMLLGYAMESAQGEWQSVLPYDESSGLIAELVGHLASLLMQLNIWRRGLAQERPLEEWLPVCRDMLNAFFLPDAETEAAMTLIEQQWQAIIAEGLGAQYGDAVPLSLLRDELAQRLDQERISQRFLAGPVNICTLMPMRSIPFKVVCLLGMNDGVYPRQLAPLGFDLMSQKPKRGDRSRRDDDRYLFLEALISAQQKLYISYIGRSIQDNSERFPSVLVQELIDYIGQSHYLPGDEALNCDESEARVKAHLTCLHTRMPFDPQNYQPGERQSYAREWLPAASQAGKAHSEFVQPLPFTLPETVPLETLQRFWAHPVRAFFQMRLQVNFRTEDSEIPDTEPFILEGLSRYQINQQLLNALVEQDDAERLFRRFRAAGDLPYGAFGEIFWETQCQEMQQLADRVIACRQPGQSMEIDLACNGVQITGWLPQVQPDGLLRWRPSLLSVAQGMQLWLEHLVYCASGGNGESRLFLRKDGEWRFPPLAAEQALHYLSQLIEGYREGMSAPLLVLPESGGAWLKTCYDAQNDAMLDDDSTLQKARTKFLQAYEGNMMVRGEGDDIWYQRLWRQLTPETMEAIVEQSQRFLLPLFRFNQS
T1 sequence (P08394 whole entry): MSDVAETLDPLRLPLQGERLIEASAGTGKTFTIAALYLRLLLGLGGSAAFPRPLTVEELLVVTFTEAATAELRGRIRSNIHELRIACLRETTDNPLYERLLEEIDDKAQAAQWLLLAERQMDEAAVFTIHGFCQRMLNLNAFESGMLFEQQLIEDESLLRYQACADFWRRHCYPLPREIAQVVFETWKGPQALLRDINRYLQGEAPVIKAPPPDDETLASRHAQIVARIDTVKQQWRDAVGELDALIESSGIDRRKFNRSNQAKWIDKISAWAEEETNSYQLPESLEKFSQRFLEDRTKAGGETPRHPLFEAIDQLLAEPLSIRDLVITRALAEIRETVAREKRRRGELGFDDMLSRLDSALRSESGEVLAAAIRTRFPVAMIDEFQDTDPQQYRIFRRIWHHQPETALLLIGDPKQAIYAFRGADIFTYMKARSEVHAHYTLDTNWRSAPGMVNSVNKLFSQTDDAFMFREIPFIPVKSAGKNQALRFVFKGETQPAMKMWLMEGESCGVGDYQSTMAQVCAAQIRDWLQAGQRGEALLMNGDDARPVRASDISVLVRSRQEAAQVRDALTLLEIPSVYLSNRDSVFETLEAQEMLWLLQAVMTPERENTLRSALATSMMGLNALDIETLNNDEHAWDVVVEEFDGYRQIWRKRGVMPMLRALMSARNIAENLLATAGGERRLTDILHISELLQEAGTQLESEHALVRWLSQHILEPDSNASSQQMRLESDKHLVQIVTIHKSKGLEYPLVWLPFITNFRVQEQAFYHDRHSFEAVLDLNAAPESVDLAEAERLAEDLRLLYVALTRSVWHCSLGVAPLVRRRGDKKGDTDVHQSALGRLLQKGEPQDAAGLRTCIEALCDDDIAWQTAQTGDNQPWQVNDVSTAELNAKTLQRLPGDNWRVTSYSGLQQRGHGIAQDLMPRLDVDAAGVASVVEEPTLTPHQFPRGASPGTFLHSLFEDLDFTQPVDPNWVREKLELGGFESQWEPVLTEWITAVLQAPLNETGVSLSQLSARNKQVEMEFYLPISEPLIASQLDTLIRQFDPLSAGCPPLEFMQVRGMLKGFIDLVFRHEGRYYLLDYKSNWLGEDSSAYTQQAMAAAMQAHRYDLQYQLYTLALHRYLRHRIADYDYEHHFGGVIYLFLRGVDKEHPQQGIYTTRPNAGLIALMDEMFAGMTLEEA

[1] = Counterscreen for AddAB inhibitors: absorbance-based bacterial cell-based high throughput dose response assay for inhibitors of bacterial viability. [Related pubchem assays (depositor defined):AID435030, AID449728, AID449731, AID488942, AID488955, AID488956]; type: functional
[2] = target: Voltage-dependent T-type calcium channel subunit alpha-1H (Homo sapiens, UniProt O95180); type: functional;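 note: channel activity triggered by adding a high calcium stimulation buffer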
Cytochrome P450 1A2 = target: T2, Cytochrome P450 1A2 (Homo sapiens, UniProt P05177);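 note: PubChem cytochrome P450 panel assay, CYP1A2 panel member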
T2 sequence (P05177 whole entry): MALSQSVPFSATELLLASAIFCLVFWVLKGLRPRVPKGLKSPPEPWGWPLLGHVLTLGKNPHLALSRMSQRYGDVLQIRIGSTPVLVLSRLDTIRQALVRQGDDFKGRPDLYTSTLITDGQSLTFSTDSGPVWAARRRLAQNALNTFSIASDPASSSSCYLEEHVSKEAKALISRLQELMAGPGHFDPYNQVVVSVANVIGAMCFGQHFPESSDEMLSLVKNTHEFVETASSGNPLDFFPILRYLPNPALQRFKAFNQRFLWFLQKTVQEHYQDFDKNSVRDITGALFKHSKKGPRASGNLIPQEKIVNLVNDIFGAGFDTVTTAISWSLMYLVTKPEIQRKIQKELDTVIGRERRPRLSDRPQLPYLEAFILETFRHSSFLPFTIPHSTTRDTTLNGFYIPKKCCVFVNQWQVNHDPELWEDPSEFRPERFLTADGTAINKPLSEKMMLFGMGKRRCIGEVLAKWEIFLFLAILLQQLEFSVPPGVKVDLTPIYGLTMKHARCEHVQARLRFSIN

[3] = HepG2 cell cytotoxicity, dose response, cytotoxicity control for Shn3 inhibitor project, CellTiter-Glo, cherry-picked (AID 624134); type: functional, cell-based
[4] = inhibitors of intracellular T. cruzi replication, confirmation, NIH3T3 host cells, beta-gal luminescence (AID 2044); type: functional, cell-based;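 note: intracellular parasites grown in NIH/3T3 mouse fibroblasts as host cells; luminescent beta-galactosidase reporter signal from transgenic T. cruzi replicating inside host cells; inhibitors lower the luminescence signal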
[5] = cytotoxicity toward NIH3T3 fibroblasts, dose response, counter-screen, cell-based, ATP luminescence, mouse fibroblasts (AID 2010); type: functional;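 note: cells exposed to compound for about 90 hours before reading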
[6] = Shn3 3'UTR reporter inhibitors, dose response, cell-based, Clone20 osteoblasts, firefly luciferase, cherry-picked (AID 624132); type: functional;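 note: firefly luciferase luminescence from reporter carrying the Shn3 3'UTR in osteoblasts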
HeLa = test: HeLa cell cytotoxicity, dose response, cytotoxicity control for MITF activator project, CellTiter-Glo luminescence, cherry-pick samples (AID 540259); type: functional, cell-based; conditions: Homo sapiens

Sequence of Cytochrome P450 2D6 (P10635 whole entry): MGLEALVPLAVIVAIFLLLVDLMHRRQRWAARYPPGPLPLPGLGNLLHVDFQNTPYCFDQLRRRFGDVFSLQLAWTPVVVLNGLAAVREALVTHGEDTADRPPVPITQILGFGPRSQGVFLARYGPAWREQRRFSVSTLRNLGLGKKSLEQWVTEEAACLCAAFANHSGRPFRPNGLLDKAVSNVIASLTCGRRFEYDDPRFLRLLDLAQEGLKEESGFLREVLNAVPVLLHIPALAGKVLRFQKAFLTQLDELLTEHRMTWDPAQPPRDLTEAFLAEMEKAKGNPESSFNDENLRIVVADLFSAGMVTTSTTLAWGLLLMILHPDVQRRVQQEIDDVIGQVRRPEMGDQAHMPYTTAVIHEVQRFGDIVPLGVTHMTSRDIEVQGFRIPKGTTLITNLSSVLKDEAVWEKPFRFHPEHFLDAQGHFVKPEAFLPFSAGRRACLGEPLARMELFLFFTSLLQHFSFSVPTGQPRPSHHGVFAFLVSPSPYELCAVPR
Sequence of Cytochrome P450 3A4 (P08684 whole entry): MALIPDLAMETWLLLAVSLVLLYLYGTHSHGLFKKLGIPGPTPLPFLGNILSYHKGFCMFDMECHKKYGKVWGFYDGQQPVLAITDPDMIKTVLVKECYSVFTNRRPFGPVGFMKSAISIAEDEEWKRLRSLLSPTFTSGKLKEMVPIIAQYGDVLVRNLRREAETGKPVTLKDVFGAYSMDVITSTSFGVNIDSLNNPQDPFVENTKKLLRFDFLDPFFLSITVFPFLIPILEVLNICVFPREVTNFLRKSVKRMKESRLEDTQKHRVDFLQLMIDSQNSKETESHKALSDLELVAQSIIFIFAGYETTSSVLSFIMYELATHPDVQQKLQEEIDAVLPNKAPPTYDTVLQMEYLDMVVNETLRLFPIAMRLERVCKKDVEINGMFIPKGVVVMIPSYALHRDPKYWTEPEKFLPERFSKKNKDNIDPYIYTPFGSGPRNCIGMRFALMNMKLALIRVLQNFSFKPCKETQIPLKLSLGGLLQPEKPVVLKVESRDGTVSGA
Sequence of Cytochrome P450 2C19 (P33261 whole entry): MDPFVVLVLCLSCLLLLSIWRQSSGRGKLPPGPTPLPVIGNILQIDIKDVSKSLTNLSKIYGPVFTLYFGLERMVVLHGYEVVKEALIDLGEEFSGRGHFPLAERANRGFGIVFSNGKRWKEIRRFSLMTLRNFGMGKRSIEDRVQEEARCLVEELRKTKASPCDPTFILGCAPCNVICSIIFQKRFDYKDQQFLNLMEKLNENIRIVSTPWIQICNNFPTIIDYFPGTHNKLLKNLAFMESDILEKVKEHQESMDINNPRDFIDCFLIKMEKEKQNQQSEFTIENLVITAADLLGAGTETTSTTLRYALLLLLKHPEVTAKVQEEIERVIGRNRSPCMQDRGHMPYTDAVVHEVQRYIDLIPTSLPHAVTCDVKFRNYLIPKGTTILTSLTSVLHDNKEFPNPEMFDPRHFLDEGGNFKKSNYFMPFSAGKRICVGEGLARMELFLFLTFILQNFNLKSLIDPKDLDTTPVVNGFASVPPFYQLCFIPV
Sequence of Voltage-dependent T-type calcium channel subunit alpha-1H (O95180 whole entry): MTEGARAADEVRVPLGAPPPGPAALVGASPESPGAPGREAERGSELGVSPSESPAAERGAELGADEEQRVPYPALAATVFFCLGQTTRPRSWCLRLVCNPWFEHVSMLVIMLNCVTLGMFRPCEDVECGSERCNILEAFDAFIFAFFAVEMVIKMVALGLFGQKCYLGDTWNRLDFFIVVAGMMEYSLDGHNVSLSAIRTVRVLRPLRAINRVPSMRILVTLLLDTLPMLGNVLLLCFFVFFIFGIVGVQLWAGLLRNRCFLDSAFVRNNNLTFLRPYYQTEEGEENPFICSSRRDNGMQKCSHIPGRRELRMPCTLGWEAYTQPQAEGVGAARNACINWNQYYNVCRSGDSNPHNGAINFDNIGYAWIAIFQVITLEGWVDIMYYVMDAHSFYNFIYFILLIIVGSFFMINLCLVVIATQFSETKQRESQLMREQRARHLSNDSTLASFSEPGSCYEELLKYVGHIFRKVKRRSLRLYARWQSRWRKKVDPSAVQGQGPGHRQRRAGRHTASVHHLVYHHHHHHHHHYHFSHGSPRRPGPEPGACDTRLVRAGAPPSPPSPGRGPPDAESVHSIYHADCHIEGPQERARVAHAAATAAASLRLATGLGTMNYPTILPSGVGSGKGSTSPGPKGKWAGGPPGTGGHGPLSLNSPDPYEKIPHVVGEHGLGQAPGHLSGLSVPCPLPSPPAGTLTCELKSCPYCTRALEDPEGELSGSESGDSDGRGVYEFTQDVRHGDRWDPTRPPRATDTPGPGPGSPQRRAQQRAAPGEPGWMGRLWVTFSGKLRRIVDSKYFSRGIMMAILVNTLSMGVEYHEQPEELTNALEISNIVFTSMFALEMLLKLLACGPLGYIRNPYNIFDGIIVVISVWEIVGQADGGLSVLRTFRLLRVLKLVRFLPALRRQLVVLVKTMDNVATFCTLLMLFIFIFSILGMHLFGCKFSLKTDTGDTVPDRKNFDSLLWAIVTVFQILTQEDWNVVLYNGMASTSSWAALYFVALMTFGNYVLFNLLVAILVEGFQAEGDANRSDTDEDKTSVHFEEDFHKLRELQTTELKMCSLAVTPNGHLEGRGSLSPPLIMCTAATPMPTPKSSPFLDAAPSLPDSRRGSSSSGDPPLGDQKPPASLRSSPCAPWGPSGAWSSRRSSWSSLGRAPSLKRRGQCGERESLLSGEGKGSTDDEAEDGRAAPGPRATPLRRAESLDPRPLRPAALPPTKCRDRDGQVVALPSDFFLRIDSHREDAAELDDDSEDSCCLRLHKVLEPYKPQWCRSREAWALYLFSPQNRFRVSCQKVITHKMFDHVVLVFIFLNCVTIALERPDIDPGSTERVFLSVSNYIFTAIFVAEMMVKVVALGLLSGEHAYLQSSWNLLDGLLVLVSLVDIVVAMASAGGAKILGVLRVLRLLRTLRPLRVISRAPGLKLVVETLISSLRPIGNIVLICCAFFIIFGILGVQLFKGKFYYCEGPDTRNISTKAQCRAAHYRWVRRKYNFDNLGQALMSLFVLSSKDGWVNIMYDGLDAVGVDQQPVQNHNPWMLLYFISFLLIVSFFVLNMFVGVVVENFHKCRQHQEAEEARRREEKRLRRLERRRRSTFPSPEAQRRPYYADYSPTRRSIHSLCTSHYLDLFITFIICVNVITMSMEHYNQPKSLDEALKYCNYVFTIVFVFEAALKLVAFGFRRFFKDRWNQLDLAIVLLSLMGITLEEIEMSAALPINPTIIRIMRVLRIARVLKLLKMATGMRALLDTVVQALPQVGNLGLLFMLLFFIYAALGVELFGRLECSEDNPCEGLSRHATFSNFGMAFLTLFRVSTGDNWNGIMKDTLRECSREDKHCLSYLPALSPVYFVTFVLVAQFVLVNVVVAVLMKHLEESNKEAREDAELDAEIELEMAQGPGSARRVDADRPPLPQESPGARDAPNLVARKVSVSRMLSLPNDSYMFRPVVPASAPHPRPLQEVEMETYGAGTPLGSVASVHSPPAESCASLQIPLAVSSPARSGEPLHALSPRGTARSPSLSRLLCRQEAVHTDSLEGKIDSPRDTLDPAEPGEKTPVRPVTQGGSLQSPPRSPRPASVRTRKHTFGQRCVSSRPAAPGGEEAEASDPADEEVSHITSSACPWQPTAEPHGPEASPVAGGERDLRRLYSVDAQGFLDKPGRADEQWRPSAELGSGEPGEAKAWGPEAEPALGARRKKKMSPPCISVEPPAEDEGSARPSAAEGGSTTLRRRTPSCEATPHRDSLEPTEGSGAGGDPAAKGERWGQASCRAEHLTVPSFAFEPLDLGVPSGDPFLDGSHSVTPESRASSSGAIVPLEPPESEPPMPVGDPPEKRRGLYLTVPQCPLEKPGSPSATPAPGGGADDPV

- AC50 (Cytochrome P450 2D6): inconclusive
- AC50 (Cytochrome P450 2C19): inconclusive
- AC50 (Cytochrome P450 3A4): 25.1 µM (inconclusive)
Structure (SMILES): CC(C)NC(=O)N1CCCC2(CCN(C(=O)c3cccc(F)c3)CC2)C1

Structure (SMILES): CCCS(=O)(=O)N1CCC(C(=O)NCc2ccccc2Cl)CC1
- IC50 (Exodeoxyribonuclease V): > 119 µM (inactive)
- IC50 [1]: > 119 µM (inactive)

- AC50 (Cytochrome P450 2D6): inconclusive
- AC50 (Cytochrome P450 2C19; read-out: AC50): 1.12 µM (inconclusive)
- AC50 (Cytochrome P450 3A4): 39.8 µM (inconclusive)
- EC50 [2]: 11.1 µM (active)
Structure (SMILES): Cc1ccc(-c2nnn(CC(=O)N(c3ccccc3)C(C(=O)NCC3CCCO3)c3ccc(Cl)cc3)n2)cc1 (stereo unspecified)

- AC50 (Cytochrome P450 2D6): inconclusive
- AC50 (Cytochrome P450 3A4): 6.31 µM (inconclusive)
- AC50 (Cytochrome P450 1A2): 14.1 µM (inconclusive)
Structure (SMILES): CCOC(=O)NCN1C(=O)C2C3C=CC(C3)C2C1=O (stereo unspecified)

Structure (SMILES): Cc1ccc(CNC(=O)c2ccc3c(O)c(O)c(-c4ccc(C)cc4)nc3c2)cc1
- AC50 [3]: 3.49 µM (active)
- EC50 [4]: 1.14 µM (active)
- EC50 [5]: 7.02 µM (active)
- IC50 (Exodeoxyribonuclease V): > 119 µM (inactive)
- IC50 [1]: > 119 µM (inactive)
- AC50 [6]: 2.82 µM (active)

Structure (SMILES): O=C1CN(/N=C\c2ccc(-c3ccc([N+](=O)[O-])cc3)o2)C(O)=N1
- AC50 (Cytochrome P450 2D6): inactive

Structure (SMILES): Cc1ccc(/C=N/c2sc3c(c2C#N)CCC3)s1
- AC50 (HeLa): 82 µM (active)

Structure (SMILES): Cc1nc(-c2noc(-c3ccccc3Cl)n2)c(C(F)(F)F)o1
- AC50 (HeLa): 291 µM (active)
